Laboratory results taken from patent US20240207245A1, “METHOD FOR INHIBITING METASTASIS OF TRIPLE-NEGATIVE BREAST CANCER USING ROSOXACIN” (National Yang Ming Chiao Tung University, priority 2022, published 2024).

What was measured:
Format in all cases: cell-based, human
[1] = tested on: highly metastatic breast cancer cell line (HMB cells); assay: Transwell Matrigel cell invasion assay, LPS-induced, HMB cells; conditions: LPS 1 μM + quinolone antibiotic 1 μM, 24 hours, compared with control group H2 (LPS only), FIG. 1
Description: (§1) In addition, the highly metastatic breast cancer cell line (abbreviated as HMB cells) used in the following experiments was obtained according to the following preparation processes: the MDA-MB-231 cells (2.5×10^6 cells) were injected into the mammary fat pad of a severe combined immune deficient (SCID) mice (purchased from BioLasco Taiwan Co., Ltd; 4 weeks old, with a body weight of approximately 20 g), and the triple-negative breast cancer cells metastasized to the lung of the SCID mice were harvested after 12 weeks. Next, the triple-negative breast cancer cells (2.5×10^6 cells) thus obtained were injected into the mammary fat pad of another SCID mice, and the HMB cells metastasized to the lung of the another SCID mice were harvested after 8 weeks.
The HMB cells prepared in section 1 of “General Experimental Materials” were divided into 8 groups, namely, two control groups (i.e., control groups H1 and H2), one experimental group (i.e., experimental group H), and five comparative groups (i.e., comparative groups H1 to H5). In addition, the MDA-MB-231 cells prepared in section 1 of “General Experimental Materials” were divided into three groups, namely, two control groups (i.e., control groups M1 and M2) and one experimental group (i.e., experimental group M).
Each group of the cells was seeded at a concentration of 1×10^5 cells per well into respective permeable Transwell® insert (Corning Inc.) for a 24-well plate.
Thereafter, the Transwell® inserts were placed into the 24-well plate that contained 0.6 mL of DMEM supplemented with 10% FBS in each well, followed by cultivation in a humidified incubator (37° C., 5% CO2, 95% relative humidity) for 24 hours.
Subsequently, the culture medium in each Transwell® insert was removed, and the respective Transwell® insert was washed with phosphate-buffered saline (PBS). The cells migrating through the polycarbonate membrane and attaching to the bottom side of the polycarbonate membrane were subjected to a fixation treatment with a 4% formaldehyde solution (in PBS) at room temperature for 15 minutes. Then, the non-migrating cells were removed using a cotton swab, followed by conducting staining using a 1% crystal violet solution according to techniques well-known to those skilled in the art. The number of the stained cells was counted under a Leica DMI3000 B inverted microscope (Leica Microsystems, Wetzlar, Germany) at 100× magnification, followed by analysis using Image-Pro Software (version 6.0).
The cell invasion percentage (%) of each group was calculated by substituting the thus obtained number of stained cells into the following Equation (I):
[formula] • where A=cell invasion percentage (%) • B=number of stained cells in respective group • C=number of stained cells in the control group H1 or the control group M1
(§2) The data thus obtained were analyzed according to the method described in section 1 of “General Procedures”.

MDA-MB-231 cells = assay: Transwell Matrigel cell invasion assay, LPS-induced, MDA-MB-231 cells; conditions: LPS 1 μM + rosoxacin 1 μM, 24 hours, compared with control group M2 (LPS only), FIG. 2
Excerpt: Human breast cancer cell line MDA-MB-231 (ATCC HTB-26) was purchased from American Type Culture Collection (ATCC, Manassas, Va., USA).
The HMB cells prepared in section 1 of “General Experimental Materials” were divided into 8 groups, namely, two control groups (i.e., control groups H1 and H2), one experimental group (i.e., experimental group H), and five comparative groups (i.e., comparative groups H1 to H5). In addition, the MDA-MB-231 cells prepared in section 1 of “General Experimental Materials” were divided into three groups, namely, two control groups (i.e., control groups M1 and M2) and one experimental group (i.e., experimental group M). […]
Subsequently, the culture medium in each Transwell® insert was removed, and the respective Transwell® insert was washed with phosphate-buffered saline (PBS). […] The number of the stained cells was counted under a Leica DMI3000 B inverted microscope (Leica Microsystems, Wetzlar, Germany) at 100× magnification, followed by analysis using Image-Pro Software (version 6.0).
The cell invasion percentage (%) of each group was calculated by substituting the thus obtained number of stained cells into the following Equation (I): […]
as §2

[2] = tested on: highly metastatic breast cancer cell line (HMB cells); assay: Tumor-sphere formation assay, LPS-induced, HMB cells; conditions: LPS 1 μM + rosoxacin 1 μM, 21 days, compared with control group H2 (LPS only), FIG. 3
Description: as §1
The sphere formation medium used in this example was prepared by supplementing Gibco DMEM/F-12 medium with the ingredients shown in Table 3.
The HMB cells prepared in section 1 of “General Experimental Materials” were divided into three groups, namely, two control groups (i.e., control groups H1 and H2) and one experimental group (i.e., experimental group H). […]
The number of tumor spheres was counted under a Leica DMI3000 B inverted microscope (Leica Microsystems, Wetzlar, Germany) at 100× magnification.
as §2

| SMILES | cell invasion percentage [1] | cell invasion percentage (MDA-MB-231 cells) | number of tumor spheres [2] |
| --- | --- | --- | --- |
| NC1CCN(c2c(F)cc3c(=O)c(C(=O)O)cn(C4CC4)c3c2Cl)C1 (stereo not shown) [Clinafloxacin] | significantly higher than that determined in the control group H2 | – | – |
| C[C@H]1NCc2cc(-c3ccc4c(=O)c(C(=O)O)cn(C5CC5)c4c3OC(F)F)ccc21 [Garenoxacin] | substantially similar to that determined in the control group H2 | – | – |
| COc1c(N2CCNC(C)C2)c(F)cc2c(=O)c(C(=O)O)cn(C3CC3)c12 (stereo not shown) [Gatifloxacin] | substantially similar to that determined in the control group H2 | – | – |
| CCn1cc(C(=O)O)c(=O)c2cc(F)c(N3CCNCC3)cc21 [Norfloxacin] | substantially similar to that determined in the control group H2 | – | – |
| CCn1cc(C(=O)O)c(=O)c2ccc(-c3ccncc3)cc21 [rosoxacin, 1-ethyl-4-oxo-7-(4-pyridyl)-1,4-dihydroquinoline-3-carboxylic acid] | significantly lower than that determined in the control group H2 | significantly lower than that determined in the control group M2 | significantly lower than that determined in the control group H2 |
